The target in experiment [1] is T1, human EHMT2 913-1193 (Homo sapiens, UniProt Q96KQ7).
T1 construct: recombinant purified human EHMT2 913-1193, Viva; purchased Viva
T1 sequence (Q96KQ7 913-1193): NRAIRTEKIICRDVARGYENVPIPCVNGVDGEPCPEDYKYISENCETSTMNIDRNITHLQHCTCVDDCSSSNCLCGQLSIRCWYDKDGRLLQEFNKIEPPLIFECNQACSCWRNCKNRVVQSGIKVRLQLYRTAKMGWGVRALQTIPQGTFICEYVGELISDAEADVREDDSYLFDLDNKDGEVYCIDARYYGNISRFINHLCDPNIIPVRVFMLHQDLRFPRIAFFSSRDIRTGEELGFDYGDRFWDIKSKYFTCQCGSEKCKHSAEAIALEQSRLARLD
The experiment can be described thus: EHMT2 enzyme assay on histone peptide substrate. In kind it is biochemical. To be noted: Table 3A; histone H3 1-15 peptide, balanced conditions; read-out: EHMT2 (IC50 μM). An excerpt: Recombinant purified human EHMT2 913-1193 ([…]) synthesized by Viva was used for all experiments. Biotinylated histone peptides were synthesized by Biopeptide and HPLC-purified to >95% purity. Streptavidin Flashplates and seals were purchased from PerkinElmer and 384 Well V-bottom Polypropylene Plates were from Greiner. ^3H-labeled S-adenosylmethionine (^3H-SAM) was obtained from American Radiolabeled Chemicals with a specific activity of 80 Ci/mmol. Unlabeled SAM and S-adenosylhomocysteine (SAH) were obtained from American Radiolabeled Chemicals and Sigma-Aldrich respectively. Flashplates were washed in a Biotek ELx-405 with 0.1% Tween. 384-well Flashplates and 96-well filter binding plates were read on a TopCount microplate reader (PerkinElmer). Compound serial dilutions were performed on a Freedom EVO (Tecan) and spotted into assay plates using a Thermo Scientific Matrix PlateMate (Thermo Scientific). Reagent cocktails were added by Multidrop Combi (Thermo Scientific).
10-point curves of test compounds were made on a Freedom EVO (Tecan) using serial 3-fold dilutions in DMSO, beginning at 2.5 mM (final top concentration of compound was […] and the DMSO was 2%). A 1 μL aliquot of the inhibitor dilution series was spotted in a polypropylene 384-well V-bottom plate (Greiner) using a Thermo Scientific Matrix PlateMate (Thermo Scientific). The 100% inhibition control consisted of 1 mM final concentration of the product inhibitor S-adenosylhomocysteine (SAH, Sigma-Aldrich). Compounds were incubated for 30 minutes with 40 μL per well of 0.031 nM EHMT2 (recombinant purified human EHMT2 913-1193, Viva) in 1× assay buffer (20 mM Bicine [pH 7.5], 0.002% Tween 20, 0.005% Bovine Skin Gelatin and 1 mM TCEP). 10 μL per well of substrate mix comprising assay buffer, ^3H-SAM (^3H-labeled S-adenosylmethionine, American Radiolabeled Chemicals, specific activity of 80 Ci/mmol), unlabeled SAM (American Radiolabeled Chemicals), and peptide representing histone H3 residues 1-15 containing C-terminal biotin (appended to a C-terminal amide-capped lysine, synthesized by Biopeptide and HPLC-purified to greater than 95% purity) were added to initiate the reaction (both substrates were present in the final reaction mixture at their respective Km values, an assay format referred to as “balanced conditions”). Reactions were incubated for 60 minutes at room temperature and quenched with 10 μL per well of 400 μM unlabeled SAM, then transferred to a 384-well streptavidin Flashplate (PerkinElmer) and washed in a Biotek ELx-405 well washer with 0.1% Tween after 60 minutes. 384-well Flashplates were read on a TopCount microplate reader (PerkinElmer).

Experiment [2] deals with H3K9me2 in MDA-MB-231 cells. The experiment can be described thus: MDA-MB-231 H3K9me2 in-cell western assay (EHMT2 ICW). In kind it is cell-based. To be noted: Homo sapiens, Table 3A, read-out: ICW (IC50 μM). An excerpt:
MDA-MB-231 cell line was purchased from ATCC (Manassas, Va., USA). RPMI/Glutamax medium, Penicillin-Streptomycin, Heat Inactivated Fetal Bovine Serum, and D-PBS were purchased from Life Technologies (Grand Island, N.Y., USA). Odyssey blocking buffer, 800 CW goat anti-mouse IgG (H+L) antibody, and Licor Odyssey Infrared Scanner were purchased from Licor Biosciences, Lincoln, Nebr., USA. H3K9me2 mouse monoclonal antibody (Cat #1220) was purchased from Abcam (Cambridge, Mass., USA). 16% Paraformaldehyde was purchased from Electron Microscopy Sciences, Hatfield, Pa., USA). MDA-MB-231 cells were maintained in complete growth medium (RPMI supplemented with 10% v/v heat inactivated fetal bovine serum) and cultured at 37° C. under 5% C02. UNC0638 was purchased from Sigma-Aldrich (St. Louis, Mo., USA).
General Procedure for MDA-MB-231 HEK9me2 in-Cell Western Assay.
Compound (100 nL) was added directly to 384-well cell plate. MDA-MB-231 cells (ATCC) were seeded in assay medium (RPMI/Glutamax supplemented with 10% v/v heat inactivated fetal bovine serum and 1% Penicillin/Streptomycin, Life Technologies) at a concentration of 3,000 cells per well to a Poly-D-Lysine coated 384-well cell culture plate with 50 μL per well. Plates were incubated at 37° C., 5% CO2 for 48 hours (BD Biosciences 356697). […] After the incubation, 50 μL per well of 8% paraformaldehyde (Electron Microscopy Sciences) in PBS was added to the plates and incubated at room temperature for 20 minutes. Plates were transferred to a Biotek 406 plate washer and washed 2 times with 100 μL per well of wash buffer (1×PBS containing 0.3% Triton X-100 (v/v)). Next, 60 μL per well of Odyssey blocking buffer (Licor Biosciences) was added to each plate and incubated for 1 hour at room temperature. Blocking buffer was removed and 20 μL of monoclonal primary antibody α-H3K9me2 (Abcam) diluted 1:800 in Odyssey buffer with 0.1% Tween 20 (v/v) were added and plates were incubated overnight (16 hours) at 4° C. Plates were washed 5 times with 100 μL per well of wash buffer. Next 20 μL per well of secondary antibody was added (1:500 800 CW donkey anti-mouse IgG (H+L) antibody (Licor Biosciences), 1:1000 DRAQ5 (Cell Signaling Technology) in Odyssey buffer with 0.1% Tween 20 (v/v)) and incubated for 1 hour at room temperature. The plates were washed 5 times with 100 μL per well wash buffer then 2 times with 100 μL per well of water. Plates were allowed to dry at room temperature then imaged on a Licor Odyssey Infrared Scanner (Licor Biosciences) which measured integrated intensity at 700 nm and 800 nm wavelengths. Both 700 and 800 channels were scanned.
First, the ratio for each well was determined by:
Each plate included fourteen control wells of DMSO only treatment (Minimum Inhibition) as well as fourteen control wells (background wells) for maximum inhibition treated with control compound UNC0638 (Background wells).
The average of the ratio values for each well was calculated and used to determine the percent inhibition for each test well in the plate. Control compound was serially diluted three-fold in DMSO for a total of 10 test concentrations beginning at 1 μM. Percent inhibition was calculated as: […]
IC50 curves were generated using triplicate wells per concentration of compound. The IC50 is the concentration of compound at which measured methylation is inhibited by 50% as interpolated from the dose response curves. IC50 values were calculated using a non-linear regression (variable slope-four parameter fit model) with by the following formula:
where Top is fixed at 100% and Bottom is fixed to 0%, [I]=concentration of inhibitor, IC50=half maximal inhibitory concentration and n=Hill Slope.

In the case of `CNC1=Nc2cc(-c3cc4ccncc4[nH]3)c(Cl)cc2C12CCC2` [Compound A44], the results for the IC50 in experiment [1] and in experiment [2] were 0.01 to 0.1 µM and 0.1 to 1 µM, respectively.

Turning to `CNC1=Nc2cc(-c3[nH]c4cnccc4c3C)c(Cl)cc2C12CCC2` [Compound A45], the IC50 in experiment [1] was below 0.01 µM; in experiment [2] it was 0.01 to 0.1 µM.

For the compound `CNCc1cn(-c2cc3c(cc2OC)C2(CCC2)C(NC)=N3)cn1` [Compound A47], the figures for the IC50 in experiment [1] and in experiment [2] were 0.01 to 0.1 µM and 0.1 to 1 µM, respectively.

Consider `CNCc1cn(-c2cc3c(cc2Cl)C2(CCC2)C(NC)=N3)cn1` [Compound A48], for which the IC50 in experiment [1] and in experiment [2] was above 1 µM in each case.

For `CNC1=Nc2cc(-n3cc4c(n3)CCCNC4)c(Cl)cc2C12CCC2` [Compound A51], the IC50 in experiment [1] and in experiment [2] was below 0.01 µM each time.

For `CNC1=Nc2cc(-n3cc([C@H]4CCCN4C)nn3)c(Cl)cc2C12CCC2` [Compound A52R], the concentration for half-maximal inhibition (IC50) in experiment [1] and in experiment [2] was 0.01 to 0.1 µM throughout.

In the case of `CNC1=Nc2cc(-n3cc([C@H]4CCCN4C)nn3)c(OC)cc2C12CCC2` [Compound A59R], the IC50 was below 0.01 µM in experiment [1] and 0.1 to 1 µM in experiment [2].

As to `CNc1cc(C)nc(Nc2ccc(OC)c(-n3ncc4c3CCCNC4)c2F)n1` [Compound A62], the results for the IC50 in experiment [1] and in experiment [2] were below 0.01 µM and 0.01 to 0.1 µM, respectively.

On to `CNc1cc(C)nc(Nc2ccc(OC)c(-n3ncc4c3CCCNC4=O)c2F)n1` [Compound A63], for which the half-maximal inhibitory concentration (IC50) in experiment [1] was above 1 µM.

For the compound `CNc1cc(C)nc(Nc2ccc(OC)c(-n3cc4c(n3)CCCN(C)C4)c2F)n1` [Compound A66], the half-inhibitory concentration (IC50) in experiment [1] was below 0.01 µM.

`CNC1=Nc2cc(-n3cc4c(n3)CCCN(C)C4)c(Cl)cc2C12CCC2` [Compound A68]: the IC50 in experiment [1] and in experiment [2] was below 0.01 µM throughout.

In the case of `CCN1CCCc2nn(-c3cc4c(cc3Cl)C3(CCC3)C(NC)=N4)cc2C1` [Compound A69], the IC50 in experiment [1] was below 0.01 µM; in experiment [2], 0.01 to 0.1 µM.

`CNC1=Nc2cc(-n3cc4c(n3)CCCNC4)c(OC)cc2C12CCC2` [Compound A70]: the concentration for half-maximal inhibition (IC50) in experiment [1] and in experiment [2] was below 0.01 µM each time.

By IC50 is commonly meant the concentration needed to halve the response being measured.

The values above are taken from patent US20200317642A1, “AMINE-SUBSTITUTED HETEROCYCLIC COMPOUNDS AS EHMT2 INHIBITORS AND DERIVATIVES THEREOF” (Epizyme, Inc., priority 2017, published 2020).
